# Assay results published in ChEMBL document CHEMBL6109102, “Conjugation with the XJB peptide enhanced neuroprotective effect of honokiol via SIRT3 modulation” (Eur J Med Chem, 2025).
# Calls of active or inactive are those of the source. No cut-off for these calls is given here.
# Tests used:
# PC-12 [1] = assay: Cytotoxicity against rat PC12 cells assessed as inhibition of cell viability at 30 uM incubated for 24 hrs by MTT assay; assay type: functional, cell-based
# SH-SY5Y = assay: Cytotoxicity against human SH-SY5Y cells assessed as inhibition of cell viability at 100 uM incubated for 24 hrs by MTT assay; assay type: functional, cell-based
# PC-12 [2] = assay: Neuroprotective activity against H2O2-induced cell injury in rat PC12 cells assessed as cell viability at 2 uM incubated for 24 hrs by MTT assay; assay type: functional, cell-based
# PC-12 [3] = assay: Cytoprotective activity against H2O2-induced cell injury in rat PC12 cells at 2.5 uM incubated with compound for 24 hrs followed by H2O2 addition and measured up to 96 hrs by Real-time cell analysis; assay type: functional, cell-based; conditions: time <= 120.0 hrs
# PC-12 [4] = assay: Inhibition of apoptosis in H2O2-induced rat PC12 cells assessed as early apoptotic cells at 2.5 uM incubated with compound for 24 hrs followed by H2O2 addition and measured after 24 hrs by Annexin V-FITC/PI staining based flow cytometry analysis (reference value: 1.09%); assay type: functional; design: scale not given: the % may be the effect or the level left
# PC-12 [5] = assay: Inhibition of apoptosis in H2O2-induced rat PC12 cells assessed as necrotic cells at 1.25 uM incubated with compound for 24 hrs followed by H2O2 addition and measured after 24 hrs by Annexin V-FITC/PI staining based flow cytometry analysis (reference value: 4.05%); assay type: functional; design: scale not given: the % may be the effect or the level left
# Danio rerio = assay: Anti-alzheimer activity in scopolamine induced zebrafish alzheimer disease model assessed as increase in total swimming distance at 1.25 to 5 uM administered for 6 days post fertilization; assay type: functional, organism-based; conditions: dose 1.25-5 µM, time 6.0 day
# PC-12 [6] = assay: Anti-apoptotic activity in H2O2-induced rat PC12 cells assessed as increase in PARP protein expression at 1.25 to 5 uM by Western blot analysis; assay type: functional, cell-based; conditions: dose 1.25-5 µM
# PC-12 [7] = assay: Neuroprotective activity against H2O2-induced cell injury in rat PC12 cells assessed as cell viability incubated for 24 hrs by MTT assay; assay type: functional, cell-based; conditions: dose 0.37-30 µM
# PC-12 [8] = assay: Inhibition of apoptosis in H2O2-induced rat PC12 cells assessed as early apoptotic cells at 1.25 uM incubated with compound for 24 hrs followed by H2O2 addition and measured after 24 hrs by Annexin V-FITC/PI staining based flow cytometry analysis (reference value: 1.09%); assay type: functional; design: scale not given: the % may be the effect or the level left
# PC-12 [9] = assay: Inhibition of apoptosis in H2O2-induced rat PC12 cells assessed as late apoptotic cells at 5 uM incubated with compound for 24 hrs followed by H2O2 addition and measured after 24 hrs by Annexin V-FITC/PI staining based flow cytometry analysis (reference value: 2.64%); assay type: functional; design: scale not given: the % may be the effect or the level left
# PC-12 [10] = assay: Inhibition of apoptosis in H2O2-induced rat PC12 cells assessed as viable cells at 1.25 uM incubated with compound for 24 hrs followed by H2O2 addition and measured after 24 hrs by Annexin V-FITC/PI staining based flow cytometry analysis (reference value: 91.4%); assay type: functional; conditions: read-out: Activity
# PC-12 [11] = assay: Inhibition of apoptosis in H2O2-induced rat PC12 cells assessed as viable cells at 5 uM incubated with compound for 24 hrs followed by H2O2 addition and measured after 24 hrs by Annexin V-FITC/PI staining based flow cytometry analysis (reference value: 91.4%); assay type: functional; conditions: read-out: Activity
# PC-12 [12] = assay: Inhibition of apoptosis in H2O2-induced rat PC12 cells assessed as late apoptotic cells at 2.5 uM incubated with compound for 24 hrs followed by H2O2 addition and measured after 24 hrs by Annexin V-FITC/PI staining based flow cytometry analysis (reference value: 2.64%); assay type: functional; design: scale not given: the % may be the effect or the level left
# PC-12 [13] = assay: Inhibition of apoptosis in H2O2-induced rat PC12 cells assessed as early apoptotic cells at 5 uM incubated with compound for 24 hrs followed by H2O2 addition and measured after 24 hrs by Annexin V-FITC/PI staining based flow cytometry analysis (reference value: 1.09%); assay type: functional; design: scale not given: the % may be the effect or the level left
# PC-12 [14] = assay: Inhibition of apoptosis in H2O2-induced rat PC12 cells assessed as viable cells at 2.5 uM incubated with compound for 24 hrs followed by H2O2 addition and measured after 24 hrs by Annexin V-FITC/PI staining based flow cytometry analysis (reference value: 91.4%); assay type: functional; conditions: read-out: Activity
# PC-12 [15] = assay: Inhibition of apoptosis in H2O2-induced rat PC12 cells assessed as necrotic cells at 5 uM incubated with compound for 24 hrs followed by H2O2 addition and measured after 24 hrs by Annexin V-FITC/PI staining based flow cytometry analysis (reference value: 4.05%); assay type: functional; design: scale not given: the % may be the effect or the level left
# PC-12 [16] = assay: Inhibition of apoptosis in H2O2-induced rat PC12 cells assessed as late apoptotic cells at 1.25 uM incubated with compound for 24 hrs followed by H2O2 addition and measured after 24 hrs by Annexin V-FITC/PI staining based flow cytometry analysis (reference value: 2.64%); assay type: functional; design: scale not given: the % may be the effect or the level left
# PC-12 [17] = assay: Inhibition of apoptosis in H2O2-induced rat PC12 cells assessed as necrotic cells at 2.5 uM incubated with compound for 24 hrs followed by H2O2 addition and measured after 24 hrs by Annexin V-FITC/PI staining based flow cytometry analysis (reference value: 4.05%); assay type: functional; design: scale not given: the % may be the effect or the level left
# PC-12 [18] = assay: Neuroprotective activity in H2O2-induced rat PC12 cells assessed as reversal of mitochondrial membrane potential reduction by measuring red fluorescence fold change at […] incubated with compound for 24 hrs followed by H2O2 addition and measured after 24 hrs by JC-1 based fluorescence microscopic analysis (reference value: 1.00); assay type: functional
# [19] = Drug uptake in mitochondria of rat PC12 cells at 8 uM incubated for 8.5 hrs by HPLC analysis; assay type: ADME; conditions: pc12, 8.5 h
# [20] = Drug uptake in rat PC12 cells at 8 uM incubated for 8.5 hrs by HPLC analysis; assay type: ADME, cell-based; conditions: pc-12, 8.5 h
# PC-12 [21] = assay: Neuroprotective activity in H2O2-induced rat PC12 cells assessed as reversal of mitochondrial membrane potential reduction by measuring red fluorescence fold change at 2.5 uM incubated with compound for 24 hrs followed by H2O2 addition and measured after 24 hrs by JC-1 based fluorescence microscopic analysis (reference value: 1.00); assay type: functional
# PC-12 [22] = assay: Neuroprotective activity in H2O2-induced rat PC12 cells assessed as reversal of mitochondrial membrane potential reduction by measuring green fluorescence fold change at 5 uM incubated with compound for 24 hrs followed by H2O2 addition and measured after 24 hrs by JC-1 based fluorescence microscopic analysis (reference value: 1.00); assay type: functional
# [23] = Drug uptake in cytoplasm of rat PC12 cells at 8 uM incubated for 8.5 hrs by HPLC analysis; assay type: ADME, subcellular; conditions: pc12, 8.5 h
# PC-12 [24] = assay: Neuroprotective activity in H2O2-induced rat PC12 cells assessed as reversal of mitochondrial membrane potential reduction by measuring green fluorescence fold change at 2.5 uM incubated with compound for 24 hrs followed by H2O2 addition and measured after 24 hrs by JC-1 based fluorescence microscopic analysis (reference value: 1.00); assay type: functional
# PC-12 [25] = assay: Neuroprotective activity in H2O2-induced rat PC12 cells assessed as reversal of mitochondrial membrane potential reduction by measuring green fluorescence at 1.5 uM incubated with compound for 24 hrs followed by H2O2 addition and measured after 24 hrs by JC-1 based fluorescence microscopic analysis (reference value: 4.90 a.u.); assay type: functional
# PC-12 [26] = assay: Cytoprotective activity against H2O2-induced cell injury in rat PC12 cells assessed as cell viability at 20 uM incubated for 24 hrs by MTT assay; assay type: functional, cell-based
# PC-12 [27] = assay: Neuroprotective activity in H2O2-induced rat PC12 cells assessed as reversal of mitochondrial membrane potential reduction by measuring red fluorescence at 5 uM incubated with compound for 24 hrs followed by H2O2 addition and measured after 24 hrs by JC-1 based fluorescence microscopic analysis (reference value: 21.62 a.u.); assay type: functional
# PC-12 [28] = assay: Neuroprotective activity in H2O2-induced rat PC12 cells assessed as reversal of mitochondrial membrane potential reduction by measuring green fluorescence fold change at 1.5 uM incubated with compound for 24 hrs followed by H2O2 addition and measured after 24 hrs by JC-1 based fluorescence microscopic analysis (reference value: 1.00); assay type: functional
# PC-12 [29] = assay: Neuroprotective activity in H2O2-induced rat PC12 cells assessed as reversal of mitochondrial membrane potential reduction by measuring green fluorescence at 2.5 uM incubated with compound for 24 hrs followed by H2O2 addition and measured after 24 hrs by JC-1 based fluorescence microscopic analysis (reference value: 4.90 a.u.); assay type: functional
# PC-12 [30] = assay: Induction of autophagy in H2O2-induced rat PC12 cells assessed as downregulation of P62 expression by Western blot analysis; assay type: functional, cell-based; conditions: dose 1.25-5 µM
# PC-12 [31] = assay: Neuroprotective activity in H2O2-induced rat PC12 cells assessed as reversal of mitochondrial membrane potential reduction by measuring red fluorescence at 1.25 uM incubated with compound for 24 hrs followed by H2O2 addition and measured after 24 hrs by JC-1 based fluorescence microscopic analysis (reference value: 21.62 a.u.); assay type: functional
# PC-12 [32] = assay: Induction of autophagy in H2O2-induced rat PC12 cells assessed as upregulation of LC3-II/I ratio by Western blot analysis; assay type: functional, cell-based; conditions: dose 1.25-5 µM
# PC-12 [33] = assay: Neuroprotective activity in H2O2-induced rat PC12 cells assessed as reversal of mitochondrial membrane potential reduction by measuring green fluorescence at 5 uM incubated with compound for 24 hrs followed by H2O2 addition and measured after 24 hrs by JC-1 based fluorescence microscopic analysis (reference value: 4.90 a.u.); assay type: functional
# PC-12 [34] = assay: Cytoprotective activity against H2O2-induced cell injury in rat PC12 cells assessed as cell viability at 10 uM incubated for 24 hrs by MTT assay; assay type: functional, cell-based
# PC-12 [35] = assay: Neuroprotective activity in H2O2-induced rat PC12 cells assessed as reversal of mitochondrial membrane potential reduction by measuring red fluorescence fold change at 5 uM incubated with compound for 24 hrs followed by H2O2 addition and measured after 24 hrs by JC-1 based fluorescence microscopic analysis (reference value: 1.00); assay type: functional
# PC-12 [36] = assay: Neuroprotective activity in H2O2-induced rat PC12 cells assessed as reversal of mitochondrial membrane potential reduction by measuring red fluorescence at 2.5 uM incubated with compound for 24 hrs followed by H2O2 addition and measured after 24 hrs by JC-1 based fluorescence microscopic analysis (reference value: 21.62 a.u.); assay type: functional
SMILES,Activity (PC-12 [1]),Activity (SH-SY5Y),Activity (PC-12 [4]) [%],Activity (PC-12 [5]) [%],Activity (Danio rerio),Activity (PC-12 [6]),Activity (PC-12 [8]) [%],Activity (PC-12 [9]) [%],viability at 1.25 µM (PC-12 [10]) [%],viability at 5 µM (PC-12 [11]) [%],Activity (PC-12 [12]) [%],Activity (PC-12 [13]) [%],viability at 2.5 µM (PC-12 [14]) [%],Activity (PC-12 [15]) [%],Activity (PC-12 [16]) [%],Activity (PC-12 [17]) [%],also measured
C=CCc1ccc(OC)c(-c2ccc(OCCCNC(=O)[C@H](CCCNC(=O)OCc3ccccc3)NC(=O)[C@@H](NC(=O)[C@@H]3CCCN3C(=O)[C@@H](Cc3ccccc3)NC(=O)[C@H](CC(C)C)NC(=O)OC(C)(C)C)C(C)C)c(CC=C)c2)c1,inactive,–,–,–,–,–,–,–,–,–,–,–,–,–,–,–,–
CC(C)C[C@H](NC(=O)OC(C)(C)C)C(=O)N[C@H](Cc1ccccc1)C(=O)N1CCC[C@H]1C(=O)N[C@H](C(=O)N[C@@H](CCCNC(=O)OCc1ccccc1)C(=O)O)C(C)C,Active,inactive,–,–,–,–,–,–,–,–,–,–,–,–,–,–,–
C=CCc1ccc(OCCCNC(=O)[C@H](CCCNC(=O)OCc2ccccc2)NC(=O)[C@@H](NC(=O)[C@@H]2CCCN2C(=O)[C@@H](Cc2ccccc2)NC(=O)[C@H](CC(C)C)NC(=O)OC(C)(C)C)C(C)C)c(-c2ccc(OC)c(CC=C)c2)c1,inactive,–,–,–,–,–,–,–,–,–,–,–,–,–,–,–,–
C=CCc1ccc(OCCCNC(=O)[C@H](CCCNC(=O)OCc2ccccc2)NC(=O)[C@@H](NC(=O)[C@@H]2CCCN2C(=O)[C@@H](Cc2ccccc2)NC(=O)[C@H](CC(C)C)NC(=O)OC(C)(C)C)C(C)C)c(-c2ccc(O)c(CC=C)c2)c1,inactive,–,11.6,1.4,Active,Active,17.2,2.69,76.6,86.8,2.87,8.97,83.9,1.58,4.86,1.66,Activity (PC-12 [2]): Active; Activity (PC-12 [3]): Active; Activity (PC-12 [7]): Dose-dependent-effect
C=CCc1ccc(O)c(-c2ccc(O)c(CC=C)c2)c1 [HONOKIOL],–,Active,15.6,1.57,Active,Active,16.6,4.84,76.9,77.1,3.27,16.5,79.6,1.52,4.95,1.43,fold change (FC) (PC-12 [18]): 0.09; Drug uptake [19]: Active; Drug uptake [20]: Active; fold change (FC) (PC-12 [21]): 0.32; fold change (FC) (PC-12 [22]): 1.26; Drug uptake [23]: Active; fold change (FC) (PC-12 [24]): 1.02; Activity (PC-12 [25]): 6.32 a.u.; Activity (PC-12 [26]): inactive; Activity (PC-12 [27]): 13.31 a.u.; fold change (FC) (PC-12 [28]): 2.55; Activity (PC-12 [29]): 4.08 a.u.; Activity (PC-12 [30]): inactive; Activity (PC-12 [31]): 2.16 a.u.; Activity (PC-12 [32]): inactive; Activity (PC-12 [33]): 3.97 a.u.; Activity (PC-12 [34]): Active; fold change (FC) (PC-12 [35]): 0.63; Activity (PC-12 [36]): 6.59 a.u.
